# Results taken from US5612329A (priority 1995, dated 1997).
# Key:
# RXF-393 cells = assay: In vitro cytotoxicity / cell growth inhibition, renal cancer; type: cell-based; conditions: Homo sapiens; RXF-393, renal cancer, 48 hr; read-out: log10 G150 (converted)
# Method: (§1) The anti-proliferative activities of the aziridinylpolyamines obtained in Synthesis Examples 1-4 were assessed by determining log10 G150 values against human cancer cell lines using the screening strategy described by Boyd et al, Drug Devel. Res. 34:91-109 (1995).
# (§2) More specifically, the compounds were tested at a minimum of five concentrations at 10-fold dilutions using a 48 hr continuous exposure protocol. Each cell line shown in Table 1 below was inoculated onto microtiter plates. After a pre-incubation period of 24-48 hr at 37° C., the test compounds were added, and the culture was incubated for an additional 48 hr at 37° C. Cell viability or cell growth end-point determinations were performed by fixation of the cells, followed by staining with sulforhodamine B (Monks et al, J. Natl. Cancer Inst., 83:757-766 (1991)).
# UO-31 cells = assay: as above; type: cell-based; conditions: Homo sapiens; UO-31, renal cancer, 48 hr; read-out: log10 G150 (converted)
# Method: as §1, §2
# L1210 murine leukemia = assay: In vivo testing in mice bearing L1210 leukemia; design: species or system female CD2 F1 mice; conditions: for LD20: footnote e
# Excerpt: Virus-free, adult female CD2 F1 mice were obtained from the Animal Genetics and Production Branch of the National Cancer Institute. To minimize exogenous infection, mice were housed in microisolator caging and handled in accordance with the NIH Guide for the care and use of laboratory animals (NIH No. 85-23, 1985). The mice were randomized to groups of 5 mice per group, except titration groups which consisted of 10 mice per group, and the untreated control group which consisted of 20 mice.
# On day 0, the mice were inoculated intraperitoneally with 1.0×10^5 L1210 mouse leukemia cells/mouse for the treatment and control groups. The titration groups received 1.0×10^4 to 1.0×10^6 L1210 cells/mouse.
# Dosing solutions were freshly prepared just prior to treatment by dissolving 1,12-diaziridinyl-4,9-diazadodecane in 25 mM sodium phosphate buffer (pH 7.4), giving concentrations of 0.18-0.6 mg/ml.
# Beginning on day 1, dosing solutions were administered intravenously by tail vein at 0.01 ml/g of body weight. The doses of 1,12-diaziridinyl-4,9-diazadodecane were 6.0, 4.0, 2.7, and 1.8 mg/kg. The dosing schedule was: a single dose on day 1; 3 doses every four days beginning on day 1; 2 doses every seven days beginning on day 1; or 2 doses on days 1 and 2.
# Percent increase in lifespan was calculated using the formula, (T-C/C)·100, where T is the median day of death for the various treatment groups, and C is the median day of death for the control group.
# The net log cell kill is an estimate of the number of cells that are killed by the drug at each specific dose and schedule, and was calculated by the formula, ((T-C)-Duration of Treatment)·0.3/Tumor Doubling Time.
compound,measurement,setting,value
"C(CCNCCCN1CC1)CNCCCN1CC1 [Synthesis Example 1, 1,12-Diaziridinyl-4,9-diazadodecane]",GI50,RXF-393 cells,0.138 µM
same,GI50,UO-31 cells,0.575 µM
same,Net log cell kill (NLCK),L1210 murine leukemia; 1.8 mg/kg i.v. on day 1,4
same,Percent increase in life span (% ILS),L1210 murine leukemia; 1.8 mg/kg i.v. on day 1,57%
same,Survival (median day of death),L1210 murine leukemia; 1.8 mg/kg i.v. on day 1,11 days
same,Net log cell kill (NLCK),"L1210 murine leukemia; 1.8 mg/kg i.v. on days 1, 2",6
same,Percent increase in life span (% ILS),"L1210 murine leukemia; 1.8 mg/kg i.v. on days 1, 2",100%
same,Survival (median day of death),"L1210 murine leukemia; 1.8 mg/kg i.v. on days 1, 2",14 days
same,Net log cell kill (NLCK),"L1210 murine leukemia; 1.8 mg/kg i.v. on days 1, 5, 9",2
same,Percent increase in life span (% ILS),"L1210 murine leukemia; 1.8 mg/kg i.v. on days 1, 5, 9",143%
same,Survival (median day of death),"L1210 murine leukemia; 1.8 mg/kg i.v. on days 1, 5, 9",17 days
same,Net log cell kill (NLCK),"L1210 murine leukemia; 1.8 mg/kg i.v. on days 1, 8",-1
same,Percent increase in life span (% ILS),"L1210 murine leukemia; 1.8 mg/kg i.v. on days 1, 8",86%
same,Survival (median day of death),"L1210 murine leukemia; 1.8 mg/kg i.v. on days 1, 8",13 days
same,Net log cell kill (NLCK),L1210 murine leukemia; 2.7 mg/kg i.v. on day 1,3
same,Percent increase in life span (% ILS),L1210 murine leukemia; 2.7 mg/kg i.v. on day 1,42%
same,Survival (median day of death),L1210 murine leukemia; 2.7 mg/kg i.v. on day 1,10 days
same,Net log cell kill (NLCK),"L1210 murine leukemia; 2.7 mg/kg i.v. on days 1, 2",6
same,Percent increase in life span (% ILS),"L1210 murine leukemia; 2.7 mg/kg i.v. on days 1, 2",100%
same,Survival (median day of death),"L1210 murine leukemia; 2.7 mg/kg i.v. on days 1, 2",14 days
same,Net log cell kill (NLCK),"L1210 murine leukemia; 2.7 mg/kg i.v. on days 1, 5, 9",4
same,Percent increase in life span (% ILS),"L1210 murine leukemia; 2.7 mg/kg i.v. on days 1, 5, 9",171%
same,Survival (median day of death),"L1210 murine leukemia; 2.7 mg/kg i.v. on days 1, 5, 9",19 days
same,Net log cell kill (NLCK),"L1210 murine leukemia; 2.7 mg/kg i.v. on days 1, 8",2
same,Percent increase in life span (% ILS),"L1210 murine leukemia; 2.7 mg/kg i.v. on days 1, 8",129%
same,Survival (median day of death),"L1210 murine leukemia; 2.7 mg/kg i.v. on days 1, 8",16 days
same,Net log cell kill (NLCK),L1210 murine leukemia; 4.0 mg/kg i.v. on day 1,4
same,Percent increase in life span (% ILS),L1210 murine leukemia; 4.0 mg/kg i.v. on day 1,57%
same,Survival (median day of death),L1210 murine leukemia; 4.0 mg/kg i.v. on day 1,11 days
same,Net log cell kill (NLCK),"L1210 murine leukemia; 4.0 mg/kg i.v. on days 1, 2",-3
same,Percent increase in life span (% ILS),"L1210 murine leukemia; 4.0 mg/kg i.v. on days 1, 2",-29%
same,Survival (median day of death),"L1210 murine leukemia; 4.0 mg/kg i.v. on days 1, 2",5 days
same,Net log cell kill (NLCK),"L1210 murine leukemia; 4.0 mg/kg i.v. on days 1, 5, 9",-7
same,Percent increase in life span (% ILS),"L1210 murine leukemia; 4.0 mg/kg i.v. on days 1, 5, 9",14%
same,Survival (median day of death),"L1210 murine leukemia; 4.0 mg/kg i.v. on days 1, 5, 9",8 days
same,Net log cell kill (NLCK),"L1210 murine leukemia; 4.0 mg/kg i.v. on days 1, 8",4
same,Percent increase in life span (% ILS),"L1210 murine leukemia; 4.0 mg/kg i.v. on days 1, 8",157%
same,Survival (median day of death),"L1210 murine leukemia; 4.0 mg/kg i.v. on days 1, 8",18 days
same,Net log cell kill (NLCK),L1210 murine leukemia; 6.0 mg/kg i.v. on day 1,-1
same,Percent increase in life span (% ILS),L1210 murine leukemia; 6.0 mg/kg i.v. on day 1,-14%
same,Survival (median day of death),L1210 murine leukemia; 6.0 mg/kg i.v. on day 1,6 days
same,LD20,L1210 murine leukemia; i.v. on day 1,4.0 mg/kg
same,LD20,"L1210 murine leukemia; i.v. on days 1, 2",2.7 mg/kg
same,LD100,"L1210 murine leukemia; i.v. on days 1, 2, footnote f",4.0 mg/kg
same,LD20,"L1210 murine leukemia; i.v. on days 1, 5, 9",4.0 mg/kg
same,LD20,"L1210 murine leukemia; i.v. on days 1, 8",4.0 mg/kg
same,increase in the life span,"L1210 murine leukemia; i.v., doses of less than 2.7 mg/kg, days 1, 5, and 9",significant increase in the life span
